Experimental data from patent US20110217394A1, “Iridoid Based Formulations” (priority 2000, published 2011).

Legend:
[1] = test system: E. coli PQ37; assay: Primary DNA damage test (SOS-chromotest); type: cell-based; conditions: for mean induction factor: 1000 μg mL^-1, less than two indicates absence of genotoxic activity; for induction of SOS repair: all concentrations tested, 7.81-1000 μg mL^-1
Procedure: The SOS-chromotest in E. coli PQ37 was used to determine the potential for DAA and AA to induce primary DNA damage. This test was carried out according to the previously developed method (Fish et al., 1987). […] E. coli PQ37 was incubated in LB medium in a 96-well plate at 37° C. in the presence of DAA or AA for 2 hours. The DAA and AA concentrations tested were 7.81, 15.6, 31.2, 62.5, 125, 250, 500, and 1000 μg mL^−1. Samples were evaluated in triplicate. Following incubation with the samples, 5-bromo-4-chloro-3-indolyl-β-D-galactopyranoside was added to the wells to detect β-galactosidase enzyme activity, which is induced during SOS repair of damaged DNA. Nitrophenyl phosphate is also added to the wells to measure alkaline phosphatase activity, an indicator of cell viability. The samples were again incubated and the absorbances of the samples, blanks and controls were measured at 410 and 620 nm with a microplate reader. […] The induction factor of each material was calculated by dividing the absorbance of the sample at 620 nm by that of the blank, while also correcting for cell viability. Induction factors less than two indicate an absence of genotoxic activity.

[2] = HPLC-PDA quantitation of iridoids (DAA, AA), with method validation, precision and stability assays; conditions: fresh noni juice; for Amount detected, Inter-day: inter-day precision and stability assay over 3 consecutive days; for Amount detected, Day 1 / Amount detected, Day 2 / Amount detected, Day 3: intra-day precision and stability assay; for Amount detected, Day 1: n = 3, Day 1; for Amount detected, Day 2: n = 3, Day 2; for Amount detected, Day 3: n = 3, Day 3
Source text: Acetonitrile (MeCN), methanol (MeOH), and water (H2O) of HPLC grade were obtained from Sigma-Aldrich (St. Louis, Mo., USA). Formic acid of analytical grade was purchased from Spectrum Chemical Mfg. Corp. (New Brunswick, N.J., USA). The chemical standard deacetylasperulosidic acid (DAA, 1) and asperulosidic acid (AA, 2) were isolated from noni fruits in our laboratory. […] They were accurately weighed and then dissolved in an appropriate volume of MeCN to produce corresponding stock solutions. The working standard solution of 1 and 2 for the calibration curve was prepared by diluting the stock solution with MeOH in seven concentration increments ranging from 0.00174-1.74 and 0.0016-0.80 mg/mL, respectively. All stock and working solutions were maintained at […] in a refrigerator. The calibration curves of standards were plotted after linear regression of the peak areas versus concentrations.
(§1) Tahitian noni fruit puree as used in this example is the mashed whole fruit, excluding seeds and pericarp. The fruits were originally collected from the Tahitian Islands. One gram of the puree was diluted with 5 mL of H2O—MeOH (1:1) and mixed thoroughly. The solution was then filtered through a nylon microfilter (0.45-μm pore size); the solution was collected into a 5 mL volumetric flask for HPLC analysis. Four batches of noni puree were analyzed in the experiments. Voucher specimens of the noni fruit puree are deposited in our lab. To test iridoid stability, a DAA solution of 0.5 mg/mL was prepared with MeOH. This solution was heated in a water-bath at 90° C. for 1 min, cooled to room temperature, and analyzed by HPLC.
Chromatographic separation was performed on a Waters 2690 separations module coupled with 996 PDA detectors, and equipped with an Atlantis C18 column (4.6 mm×250 mm; 5 Waters Corporation, Milford, Mass., USA). The pump was connected to two mobile phases: A; MeCN, and B; 0.1% formic acid in H2O (v/v), and eluted at a flow rate of 0.8 mL/min. The mobile phase was programmed consecutively in linear gradients as follows: 0-5 min, 0% A; and 40 min, 30% A. The PDA detector was monitored in the range of 210-400 nm (235 nm was selected for quantitative analysis). The injection volume was 10 μL for each of the sample solutions. The column temperature was maintained at 25° C. Data collection and integration were performed using Waters Millennium software revision 32.
The limits of detection (LOD) and quantitation (LOQ) were defined as the lowest concentrations of analytes in a sample that can be detected and quantified. These LOD and LOQ limits were determined on the basis of signal-to-noise ratios (S/N) of 3:1 and 10:1, respectively. The working solutions of standards 1 and 2 for LOD and LOQ were prepared by diluting them sequentially. The intra- and inter-day precision assays, as well as stability tests were performed by following the method applied to the sample analysis for 3 consecutive days. Accuracy of the method (recovery) was assessed by the recovery percentage of iridoids 1 and 2 in the spiked samples. The noni fruit puree samples were spiked with standards at 3 different concentrations (equivalent to 50%, 100% and 150% concentration of 1 and 2 in the samples). The recovery percentage was calculated using the ratio of concentration detected (actual) to those spiked (theoretical). Variation was evaluated by the relative standard deviation (RSD) of triplicate injections in the HPLC experiments.
The iridoid content, inclusive of deacetylasperulosidic acid (DAA) and asperulosidic acid (AA), was determined by HPLC, according to a previously reported method (Deng et al., 2010 b). Other significant secondary metabolites, such as scopoletin, rutin, and quercetin, were also determined by HPLC (Deng et al., 2010 a).
HPLC grade acetonitrile (MeCN), methanol (MeOH), and water (H2O) were obtained from Sigma-Aldrich (St. Louis, Mo., USA). Analytical grade formic acid was purchased from Spectrum Chemical Mfg. Corp. (New Brunswick, N.J., USA). […]

[3] = test system: mammalian cells; conditions: cited from earlier work
[4] = test system: E. coli PQ37; assay: Anti-genotoxicity test (SOS-chromotest with 4NQO, Example Three); type: cell-based; conditions: for reduction in genotoxicity: 250 μg iridoid plus 1.25 μg mL^-1 4NQO; for induction factor of 4NQO plus iridoid compared with vehicle blank: 250 μg mL^-1 iridoid plus 1.25 μg mL^-1 4NQO
Procedure: The primary DNA damage test was performed again, similar to the method described above. […] Induction factors were calculated in the same manner as described above.

[5] = Thermal stability of DAA under pasteurization conditions (HPLC); type: physicochemical; conditions: 90° C. at pH 3.3 for one minute
Procedure: as §1
Noni fruit juice is usually subjected to heat pasteurization during commercial processing. Pasteurization is usually employed in noni industry, i.e., heating up to 87.7° C. for several seconds. In this study, the stability of DAA was conducted. DAA was exposed to 90° C. at pH 3.3 for one minute to determine its thermal stability at acidic conditions.

[6] = test system: E. coli PQ37; type: cell-based; conditions: 250 ug mL^-1 iridoid plus 1.25 ug mL^-1 4NQO; blank = 1
Procedure: The SOS-chromotest in E. coli PQ37 was used to determine the potential for iridoids in noni fruit from French Polynesia to prevent primary DNA damage. E. coli PQ37 was incubated at 37° C. in the presence of deacetylasperulosidic acid and asperulosidic acid at a concentration of 250 ug mL^−1 in a 96-well plate. Replicate samples were evaluated. […] Following incubation with the samples, 5-bromo-4-chloro-3-indolyl-β-D-galactopyranoside was added to the wells to detect β-galactosidase enzyme activity, which is induced during SOS repair of damaged DNA. The samples were again incubated for 90 minutes and the absorbances of the samples, blank and positive control were measured at 620 nm with a microplate reader. The β-galactosidase enzyme activity induction factor of each material was calculated by dividing the absorbance of the sample at 620 nm by that of the blank, while also correcting for cell viability.

[7] = 7.81 μg mL^−1, E. coli PQ37, 2 hours
[8] = 15.6 μg mL^−1, E. coli PQ37, 2 hours
[9] = 31.2 μg mL^−1, E. coli PQ37, 2 hours
[10] = 62.5 μg mL^−1, E. coli PQ37, 2 hours
[11] = 125 μg mL^−1, E. coli PQ37, 2 hours
[12] = 250 μg mL^−1, E. coli PQ37, 2 hours
[13] = 500 μg mL^−1, E. coli PQ37, 2 hours
[14] = 1000 μg mL^−1, E. coli PQ37, 2 hours

CC(=O)OCC1=C[C@H](O)[C@@H]2C(C(=O)O)=CO[C@@H](O[C@@H]3O[C@H](CO)[C@@H](O)[C@H](O)[C@H]3O)[C@H]12 [AA, asperulosidic acid]
Induction factor [1, 7]: 1.01 ± 0.05 | Induction factor [1, 8]: 1.04 ± 0.11 | Induction factor [1, 9]: 0.99 ± 0.06 | Induction factor [1, 10]: 1.04 ± 0.13 | Induction factor [1, 11]: 1.02 ± 0.08 | Induction factor [1, 12]: 1.11 ± 0.16 | Induction factor [1, 13]: 1.07 ± 0.04 | mean induction factor [1]: 1.09 | Induction factor [1, 14]: 1.09 ± 0.03 | induction of SOS repair [1]: did not induce any SOS repair at a frequency significantly above that of the blank | Amount detected, Inter-day [2]: 0.281 mg/mL | Amount detected, Day 1 [2]: 0.276 mg/mL | Amount detected, Day 2 [2]: 0.281 mg/mL | Amount detected, Day 3 [2]: 0.287 mg/mL | genotoxicity in mammalian cells [3]: non-genotoxic | reduction in genotoxicity [4]: 99.22% | induction factor of 4NQO plus iridoid compared with vehicle blank [4]: no statistical difference from that of the vehicle blank

O=C(O)C1=CO[C@@H](O[C@@H]2O[C@H](CO)[C@@H](O)[C@H](O)[C@H]2O)[C@@H]2C(CO)=C[C@H](O)[C@H]12 [DAA, deacetylasperulosidic acid]
Induction factor [1, 7]: 0.93 ± 0.13 | Induction factor [1, 8]: 1.03 ± 0.16 | Induction factor [1, 9]: 1.04 ± 0.08 | Induction factor [1, 10]: 1.05 ± 0.07 | Induction factor [1, 11]: 1.00 ± 0.08 | Induction factor [1, 12]: 1.06 ± 0.06 | Induction factor [1, 13]: 1.03 ± 0.02 | mean induction factor [1]: 1.07 | Induction factor [1, 14]: 1.07 ± 0.14 | induction of SOS repair [1]: did not induce any SOS repair at a frequency significantly above that of the blank | Amount detected, Inter-day [2]: 1.297 mg/mL | Amount detected, Day 1 [2]: 1.308 mg/mL | Amount detected, Day 2 [2]: 1.291 mg/mL | Amount detected, Day 3 [2]: 1.291 mg/mL | genotoxicity in mammalian cells [3]: non-genotoxic | reduction in genotoxicity [4]: 98.96% | induction factor of 4NQO plus iridoid compared with vehicle blank [4]: no statistical difference from that of the vehicle blank | thermal stability (DAA content before and after heating) [5]: no difference in the DAA contents before and after heating | β-galactosidase enzyme activity induction factor of iridoid plus 4NQO (mean±standard deviation) [6]: 0.98±0.02
